Where two headings read alike, the source gives them in different places.
Tests used:
[1] = pKa of dyes and complexes (fluorescence titration)
Excerpt: By way of illustration, Table 1, below, lists a number of dyes, some prior to functionalisation, and complexes according to the present invention (in each X is O^−), together with their pKa values.

[2] = Fluorescence / colour response to pH; type: physicochemical; settings: on tlc, compared with 2-[3,6-bisdimethylaminoxanth-9-ylium]-5-dimethylaminophenol
Excerpt: The dyes and complexes of the present invention show a negative fluorescence intensity response with increasing pH. […] Furthermore, the pals of these dyes and complexes may be varied by selection of the substituents R^5 and R^6, and by the inclusion of electron donating groups on the lowermost aryl ring, to give a range of dyes and complexes having pKa's particularly suited to cell analysis procedures.

Compound: COCCOCCN(CCOCCOC)c1ccc(-c2c3ccc(=[N+](CCOCCOC)CCOCCOC)cc-3oc3cc(N(CCOCCOC)CCOCCOC)ccc23)c([O-])c1
- pKa [1]: 2.3

Compound: 2-[3-diethylamino-6-dimethylamino-xanth-9-ylium]-5-dimethylaminophenol
- pH sensitivity [2]: same pH sensitivity

Compound: R1-Y=NHCSNC6H4CH2CH2; target=transferin; R2=Et; R3=Me; R4=Me; R5-Y2=Et; R6=Et: complex of a dye of formula (I) bonded to transferin
- pKa ([1]; Table 1, X is O-, dyes and complexes): 2.0
